IC50 data for 26 compounds are collected here from patent US20060252807A1, “Novel ortho-terphenyl inhibitors of p38 kinase and methods of treating inflammatory disorders” (Kalypsys, Inc., priority 2005, published 2006).

In one test the target is T1, active p38 alpha enzyme (Upstate Biotechnology) (Homo sapiens, UniProt Q16539).
T1 construct: purchased Upstate Biotechnology
T1 sequence (Q16539 whole entry): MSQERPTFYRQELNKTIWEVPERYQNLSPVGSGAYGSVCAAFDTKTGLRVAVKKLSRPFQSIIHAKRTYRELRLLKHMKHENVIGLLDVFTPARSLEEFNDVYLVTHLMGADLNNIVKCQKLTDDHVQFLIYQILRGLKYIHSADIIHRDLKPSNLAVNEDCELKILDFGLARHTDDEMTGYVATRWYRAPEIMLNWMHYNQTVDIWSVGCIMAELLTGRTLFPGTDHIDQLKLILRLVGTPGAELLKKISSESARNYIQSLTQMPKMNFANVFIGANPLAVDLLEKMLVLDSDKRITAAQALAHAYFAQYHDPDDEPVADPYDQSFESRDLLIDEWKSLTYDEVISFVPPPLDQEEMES
In words: p38α biochemical assay (ATP turnover, luminescent detection, Cambrex PKlight). The note with it: p38α biochemical assay, Table 1 Biological Activity. In outline:
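Active p38α phosphorylates MapkapK2 whole protein with 1.4 uM final ATP, 2 h at 30C, in Tris/MOPS buffer with MgCl2, CaCl2, EGTA, EDTA, glycerol, β-mercaptoethanol and 1 mg/ml BSA. Compounds pin-delivered from DMSO; total ATP turnover read by luminescence after PKlight addition.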
A word on the IC50: it is the concentration that gives 50% inhibition. `CC(C)NC(=O)c1csc(-c2oc(CN3CCN(C(=O)C4CC(O)CN4C(=O)OC(C)(C)C)CC3)nc2-c2ccc(F)cc2)n1` (centres unmarked) [Example 554] came in with an IC50 of more than 1000 nM.
`CC(C)NC(=O)c1csc(-c2oc(CN3CCN(C(=O)c4cc(Cl)c(O)c(Cl)c4)CC3)nc2-c2ccc(F)cc2)n1` [Example 518] yielded an IC50 of more than 1000 nM.
As to `CC(C)NC(=O)c1csc(-c2oc(CNC(=O)c3ccccc3-c3ccccc3)nc2-c2ccc(F)cc2)n1` [Example 267], the IC50 was more than 1000 nM.
On the same count and under the same terms, the result for `CC(C)NC(=O)c1csc(-c2c(-c3ccc(F)cc3)noc2CNC(=O)c2cc(O)c(O)c(O)c2)n1` [Example 665] reads more than 1000 nM; that for `CC(C)Cc1ccc(C(C)C(=O)NCc2nc(-c3ccc(F)cc3)c(-c3nc(C(=O)NC(C)C)cs3)o2)cc1` (centres unmarked) [Example 280], more than 1000 nM.
In turn, `Cc1ccc(C(=O)CCC(=O)NCc2nc(-c3ccc(F)cc3)c(-c3nc(C(=O)NC(C)C)cs3)o2)cc1` [Example 256] had an IC50 of more than 1000 nM.
`CC(C)NC(=O)c1csc(-c2c(-c3ccc(F)cc3)noc2CNC(=O)Cc2ccc(O)c(Cl)c2)n1` [Example 715] displayed an IC50 of more than 1000 nM.

The test is the same for the next values; noted with them: p38α kinase; Table 1 Biological Activity.
With `Cc1cccc(N2CCN(Cc3onc(-c4ccc(F)cc4)c3-c3nc(C(=O)NC(C)C)cs3)CC2C)c1` (centres unmarked) [Example 1590], the IC50 was more than 1000 nM.
`CC(C)(C)OC(=O)NCCNC(=O)c1csc(-c2c(-c3ccc(F)cc3)n[nH]c2C2CCNCC2)n1` [Example 2133]: the IC50 was more than 1000 nM.
In the case of `Cc1nc(-c2ccc(F)cc2)c(-c2nc(C(=O)N3CC(C)NC(C)C3)cs2)s1` (centres unmarked) [Example 1860], the IC50 is more than 1000 nM.
The same measure, in the same setting: next, `Cc1nc(-c2ccc(F)cc2)c(-c2nc(C(=O)N3CCOCC3)cs2)s1` [Example 1841]: more than 1000 nM; `CC(C)NC(=O)c1csc(-c2c(-c3ccc(F)cc3)n[nH]c2C2CCN(C(=O)c3cc(F)cc(F)c3)CC2)n1` [Example 874]: more than 1000 nM.
For `CC(C)NC(=O)c1csc(-c2c(-c3ccc(F)cc3)noc2CN(CCC#N)Cc2cccnc2)n1` [Example 1566], the IC50 is more than 1000 nM.
Same read-out and setting: next, `COc1ccc(N2CCN(C(=O)c3csc(-c4sc(C)nc4-c4ccc(F)cc4)n3)CC2)cc1` [Example 1920]: more than 1000 nM; `CC(C)NC(=O)c1csc(-c2c(-c3ccc(F)cc3)noc2CN2CCC(NC(=O)OC(C)(C)C)C2)n1` (centres unmarked) [Example 1585]: more than 1000 nM; `Cc1ccc(NCc2onc(-c3ccc(F)cc3)c2-c2nc(C(=O)NC(C)C)cs2)cc1` [Example 1632]: more than 1000 nM.
For the compound `CCC(CO)NC(=O)c1csc(-c2sc(C)nc2-c2ccc(F)cc2)n1` (centres unmarked) [Example 1729], the IC50 is not above 1000 nM.
`CC(C)NC(=O)c1csc(-c2oc(CNCc3ccccc3Cl)nc2-c2ccc(F)cc2)n1` [Example 1131] came in with an IC50 of more than 1000 nM.
On the same count and under the same terms, next, `Cc1nc(-c2ccc(F)cc2)c(-c2nc(C(=O)N3CCN(c4ccc(F)cc4)CC3)cs2)s1` [Example 1905]: more than 1000 nM; `CC(C)NC(=O)c1csc(-c2oc(CN[C@H](CO)Cc3ccccc3)nc2-c2ccc(F)cc2)n1` [Example 1144]: more than 1000 nM.
`Cc1ccc(CNC(=O)c2csc(-c3c(-c4ccc(F)cc4)n[nH]c3C3CCNCC3)n2)cc1` [Example 2078] displayed an IC50 of more than 1000 nM.
`Cc1ccc(N2CCN(Cc3nc(-c4ccc(F)cc4)c(-c4nc(C(=O)NC(C)C)cs4)o3)CC2)cc1C` [Example 1266] had an IC50 of more than 1000 nM.
Compound `CC(C)NC(=O)c1csc(-c2c(-c3ccc(F)cc3)n[nH]c2C2CCN(C(=O)c3cccc(F)c3F)CC2)n1` [Example 872] came in with an IC50 of more than 1000 nM.
In the case of `CCN(CC)Cc1onc(-c2ccc(F)cc2)c1-c1nc(C(=O)NC(C)C)cs1` [Example 1513], the IC50 is more than 1000 nM.
`CC(C)NCc1nc(-c2ccc(F)cc2)c(-c2nc(C(=O)NC(C)C)cs2)o1` [Example 1054]: the IC50 is more than 1000 nM.
`Cc1nc(-c2ccc(F)cc2)c(-c2nc(C(=O)NCc3cccnc3)cs2)s1` [Example 1740] yielded an IC50 not above 1000 nM.
